Test results reported in ChEMBL document CHEMBL1811854, “Phenolic compounds from the roots of Jordanian viper's grass, Scorzonera judaica” (J Nat Prod, 2011).

Legend:
Format in all cases: functional, cell-based
HeLa = assay: Cytotoxicity against human HeLa cells by MTT assay
Jurkat = assay: Cytotoxicity against human Jurkat cells by MTT assay
MCF7 = assay: Cytotoxicity against human MCF7 cells by MTT assay

Measured: IC50

O=C(Cc1cccc(O)c1C(=O)O)c1ccc(O)cc1
> 100 µM: all assays above

COc1cc([C@H]2O[C@H](O[C@@H]3O[C@H](CO)[C@@H](O)[C@H](O)[C@H]3O)[C@H]3[C@H]2CO[C@H]3c2ccc(O)c(OC)c2)ccc1O
> 100 µM: all assays above

C[C@@H]1O[C@@H](O[C@@H]2[C@@H](O)[C@H](Oc3ccc([C@@H]4Cc5cccc(O)c5C(=O)O4)cc3)O[C@H](CO)[C@H]2O)[C@H](O)[C@H](O)[C@H]1O
> 100 µM: all assays above

O=C(Cc1cccc(O)c1C(=O)O)c1ccc(O)c(O)c1
> 100 µM: all assays above

O=C(O)c1c(O)cccc1/C=C/c1ccc(O[C@@H]2O[C@H](CO)[C@@H](O)[C@H](O)[C@H]2O)cc1
> 100 µM: all assays above

O=C1O/C(=C\c2ccc(O)c(O)c2)c2cccc(O[C@@H]3O[C@H](CO)[C@@H](O)[C@H](O)[C@H]3O)c21
> 100 µM: all assays above

O=C1OC(c2ccc(O)c(O)c2)C/C1=C\c1ccc(O)c(O)c1 (configuration not stated)
> 100 µM: all assays above

COc1cc(C(=O)Cc2cccc(O)c2C(=O)O)cc(O)c1O
> 100 µM: all assays above

O=C1OC(c2ccc(O)c(O)c2)=C/C1=C/c1ccc(O)c(O)c1
> 100 µM: all assays above
